Data from paper PMC6232110, “Two novel, putative mechanisms of action for citalopram-induced platelet inhibition” (Scientific Reports, 2018).

Assays:
CalDAG-GEFI = molecular target: T1, CalDAG-GEFI (Homo sapiens, UniProt Q7LDG7); assay: BODIPY-FL-GDP fluorescence nucleotide exchange assay with purified recombinant CalDAG-GEFI and Rap1B; assay type: biochemical
T1 construct: gene RASGRP2; recombinant 6xHis, C-terminal truncation p.(Ala552_Leu609del); with Rap1B
Description: BODIPY-FL-GDP fluorescence nucleotide exchange assay with purified recombinant CalDAG-GEFI and Rap1B on CalDAG-GEFI | Citalopram inhibited CalDAG-GEFI-mediated BODIPY-FL-GDP exchange onto Rap1B in a concentration-dependent manner

glycoprotein VI (GPVI) = molecular target: T2, glycoprotein VI (GPVI) (Homo sapiens, UniProt Q9HCN6); assay: Schild analysis of CRPXL-induced platelet aggregation; inhibition of anti-GPVI antibody binding by flow cytometry; assay type: cell-based; conditions: platelets; read-out: Kd
T2 construct: gene GP6; native GPVI on washed human platelets; with FcRγ chain
T2 sequence (Q9HCN6 21-339): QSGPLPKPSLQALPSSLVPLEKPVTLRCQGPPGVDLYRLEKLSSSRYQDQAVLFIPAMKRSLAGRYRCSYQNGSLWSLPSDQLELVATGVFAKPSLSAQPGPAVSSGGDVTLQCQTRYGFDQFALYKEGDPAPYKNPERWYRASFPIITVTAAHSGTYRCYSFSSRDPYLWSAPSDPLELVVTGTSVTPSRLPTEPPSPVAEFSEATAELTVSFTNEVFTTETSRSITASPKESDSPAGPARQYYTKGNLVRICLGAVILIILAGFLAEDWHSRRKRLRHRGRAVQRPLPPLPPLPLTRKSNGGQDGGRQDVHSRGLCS
T2 sequence (P30273 19-86 partner): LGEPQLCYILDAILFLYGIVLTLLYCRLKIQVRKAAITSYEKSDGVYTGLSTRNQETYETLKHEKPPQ

T1 sequence (P61224 1-167): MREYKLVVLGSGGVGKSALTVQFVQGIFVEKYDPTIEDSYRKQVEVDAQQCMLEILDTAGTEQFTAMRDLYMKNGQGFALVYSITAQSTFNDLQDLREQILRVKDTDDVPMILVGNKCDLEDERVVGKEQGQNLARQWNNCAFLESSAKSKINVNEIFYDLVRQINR
T1 sequence (Q7LDG7 1-551): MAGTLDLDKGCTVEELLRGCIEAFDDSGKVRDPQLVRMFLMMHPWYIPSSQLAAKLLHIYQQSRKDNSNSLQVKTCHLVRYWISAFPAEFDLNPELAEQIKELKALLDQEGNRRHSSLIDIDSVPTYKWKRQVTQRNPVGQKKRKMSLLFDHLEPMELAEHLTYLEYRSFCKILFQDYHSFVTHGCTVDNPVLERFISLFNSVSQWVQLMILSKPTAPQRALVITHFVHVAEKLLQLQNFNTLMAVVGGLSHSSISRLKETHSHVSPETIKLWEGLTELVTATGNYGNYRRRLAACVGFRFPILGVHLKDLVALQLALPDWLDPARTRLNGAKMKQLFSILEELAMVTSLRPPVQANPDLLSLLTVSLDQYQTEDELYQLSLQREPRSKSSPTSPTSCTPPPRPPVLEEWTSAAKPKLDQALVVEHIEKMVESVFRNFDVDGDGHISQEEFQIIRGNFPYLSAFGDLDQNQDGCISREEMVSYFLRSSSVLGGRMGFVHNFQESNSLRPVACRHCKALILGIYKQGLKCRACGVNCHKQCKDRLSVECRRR

CN(C)CCCC1(c2ccc(F)cc2)OCc2cc(C#N)ccc21 (racemic) [citalopram]
IC50 (CalDAG-GEFI): 214 µM | Kb (glycoprotein VI (GPVI)): ~16 µM
